molecular target: T1, GPR6 receptor expressed in CHO-K1 cells (Homo sapiens, UniProt P46095); test: In vitro inhibition of cAMP (EC50), cell-based HTRF cAMP assay; conditions: inhibition of constitutive cAMP activity of GPR6 in CHO-K1 cells
T1 construct: expressed in transfected cells
Experimental: I. In Vitro Inhibition of cAMP (EC50)
This cell based assay measures the ability of test compounds to inhibit the constitutive cAMP activity of GPR6 receptor expressed in CHO-K1 cells. CHO cells are stably expressed with GPR6 receptor, whose expression is controlled by a tetracycline inducible element. The cells were cultured in medium containing F12K, 10% FBS, 1% Penn/Strep, 200 μg/mL Hygromycin. GPR6 receptor expression is induced for 20 hours with 2 μg/mL doxycycline (Sigma D9891) in growth media. After addition of doxycycline, the cells are plated at a density of 450-750 cells per well in 96-well half-volume black tissue culture plates (Costar) and placed in an incubator (37° C., 5% CO2) for 20 hours prior to cAMP assays.
Culture media is removed from the cells and they are washed with 50 μL/well of Ringer's Buffer (MgCl2 0.047 mg/mL, NaH2PO4 0.18 mg/mL, Na2HPO4 0.1 mg/mL, KCl 0.34 mg/mL, NaHCO3 1.26 mg/mL, D-glucose 1.8 mg/mL, NaCl 7 mg/mL; pH=7.4). The test compounds are suspended in DMSO, diluted in Ringer's Buffer containing 0.5% fatty acid free BSA plus 300 μM IBMX, and incubated on the cells for 45 minutes at 37° C. and 5% CO2. After incubation, the cells are conditioned for 10 minutes at room temp with Eu-cAMP tracer solution from a Perkin Elmer Lance HTRF Ultra cAMP assay kit (TRF0263). Then ULight™-anti-cAMP solution from the Lance HTRF kit is added and incubated on a shaker at room temp for 1 hour prior to HTRF detection in a Perkin Elmer Envision plate reader. EC50 curves are generated with a four-parameter logistic equation using GraphPad Prism 5.03.
Table 1 lists biological assay data (in vitro inhibition of cAMP) for some of the compounds shown in the examples, where larger pEC50 values represent higher activity or potency. All of the compounds shown in Table 1 were tested in accordance with a cell-based assay which measures the ability of test compounds to inhibit the constitutive cAMP activity of GPR6 receptor expressed in CHO-K1 cells (reported as pEC50). The assay is described in the specification under the heading “In vitro inhibition of cAMP (EC50).”

T1 sequence (P46095 whole entry): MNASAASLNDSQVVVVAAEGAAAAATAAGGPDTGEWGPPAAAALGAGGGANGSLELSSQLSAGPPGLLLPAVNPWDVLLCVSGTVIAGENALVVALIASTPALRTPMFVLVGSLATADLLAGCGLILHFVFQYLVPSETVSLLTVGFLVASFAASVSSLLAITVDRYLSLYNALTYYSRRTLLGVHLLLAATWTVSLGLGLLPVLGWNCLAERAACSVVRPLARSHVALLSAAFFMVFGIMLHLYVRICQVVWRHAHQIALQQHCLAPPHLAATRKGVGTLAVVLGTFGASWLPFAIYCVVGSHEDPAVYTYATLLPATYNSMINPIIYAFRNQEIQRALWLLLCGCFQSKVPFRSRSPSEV

pEC50, in vitro inhibition of cAMP	SMILES
7.4	Cc1cccc(C(=O)Nc2cc(C#N)cnc2N2CCC(Oc3ccc(F)cc3F)CC2)n1 [Example 54, N-(5-cyano-2-(4-(2,4-difluorophenoxy)piperidin-1-yl)pyridin-3-yl)-6-methylpicolinamide]
7.3	N#Cc1cnc(N2CCC(Oc3ccc(F)cc3F)CC2)c(NC(=O)c2cc(Cl)ccn2)c1 [Example 55, 4-chloro-V-(5-cyano-2-(4-(2,4-difluorophenoxy)piperidin-1-yl)pyridin-3-yl)picolinamide]
7.4	Cn1cccc(C(=O)Nc2cc(C#N)cnc2N2CCC(Oc3ccc(F)cc3F)CC2)c1=O [Example 58, N-(5-cyano-2-(4-(2,4-difluorophenoxy)piperidin-1-yl)pyridin-3-yl)-1-methyl-2-oxo-1,2-dihydropyridine-3-carboxamide]
7.3	Cc1cccnc1C(=O)Nc1cc(C#N)cnc1N1CCC(Oc2ccc(F)cc2F)CC1 [Example 59, N-(5-cyano-2-(4-(2,4-difluorophenoxy)piperidin-1-yl)pyridin-3-yl)-3-methylpicolinamide]
6.4	N#Cc1cnc(N2CCC(Oc3ccc(F)cc3F)CC2)c(NC(=O)c2cnccc2O)c1 [Example 61]
7.1	COc1ncccc1C(=O)Nc1cc(C#N)cnc1N1CCC(Oc2ccc(F)cc2F)CC1 [Example 63, N-(5-cyano-2-(4-(2,4-difluorophenoxy)piperidin-1-yl)pyridin-3-yl)-2-methoxynicotinamide]
7.3	N#Cc1cnc(N2CCC(Oc3ccc(F)cc3F)CC2)c(NC(=O)c2ccccn2)c1 [Example 66, N-(5-cyano-2-(4-(2,4-difluorophenoxy)piperidin-1-yl)pyridin-3-yl)picolinamide]
6.6	Cc1ccc(Cl)c(OC2CCN(c3ncc(C#N)cc3NC(=O)c3ccccn3)CC2)c1 [Example 68, N-(2-(4-(2-chloro-5-methylphenoxy)piperidin-1-yl)-5-cyanopyridin-3-yl)picolinamide]
6.7	Cc1ccc(SC2CCN(c3ncc(C#N)cc3NC(=O)c3ccccn3)CC2)cc1 [Example 69, N-(5-cyano-2-(4-(p-tolylthio)piperidin-1-yl)pyridin-3-yl)picolinamide]

Second part, the compound before the results:

SMILES	pEC50, in vitro inhibition of cAMP
N#Cc1ccc(N2CCC(Oc3ccc(F)cc3F)CC2)c(NC(=O)c2ccc(O)nn2)c1 [Example 52, N-(5-cyano-2-(4-(2,4-difluorophenoxy)piperidin-1-yl)phenyl)-6-hydroxypyridazine-3-carboxamide]	6.2
N#Cc1ccc(N2CCC(Oc3ccc(F)cc3F)CC2)c(NC(=O)c2cnn3c2OCCC3)c1 [Example 53, N-(5-cyano-2-(4-(2,4-difluorophenoxy)piperidin-1-yl)phenyl)-6,7-dihydro-5H-pyrazolo[5,1-b][1,3]oxazine-3-carboxamide]	6.3
COc1cc(F)ccc1C(=O)Nc1cc(C#N)cnc1N1CCC(Oc2ccc(F)cc2F)CC1 [Example 56, N-(5-cyano-2-(4-(2,4-difluorobenoxy)piperidin-1-yl)pyridin-3-yl)-4-fluoro-2-methoxybenzamide]	7.2
Cc1ccc(F)c(C(=O)Nc2cc(C#N)cnc2N2CCC(Oc3ccc(F)cc3F)CC2)n1 [Example 57, N-(5-cyano-2-(4-(2,4-difluorophenoxy)piperidin-1-yl)pyridin-3-yl)-3-fluoro-6-methylpicolinamide]	7.3
COc1nn(C)cc1C(=O)Nc1cc(C#N)cnc1N1CCC(Oc2ccc(F)cc2F)CC1 [Example 60, N-(5-cyano-2-(4-(2,4-difluorophenoxy)piperidin-1-yl)pyridin-3-yl)-3-methoxy-1-methyl-1H-pyrazole-4-carboxamide]	7.3
COc1ccncc1C(=O)Nc1ccc(C)nc1N1CCC(Oc2ccc(F)cc2F)CC1 [Example 62, N-(2-(4-(2,4-difluorophenoxy)piperidin-1-yl)-6-methylpyridin-3-yl)-4-methoxynicotinamide]	7.3
COc1ncccc1C(=O)Nc1cc(CNC(C)=O)cnc1N1CCC(Oc2ccc(F)cc2F)CC1 [Example 64, N-(5-(acetamidomethyl)-2-(4-(2,4-difluorophenoxy)piperidin-1-yl)pyridin-3-yl)-2-methoxynicotinamide]	7.0
COCc1cnc(N2CCC(Oc3ccc(F)cc3F)CC2)c(NC(=O)c2cccnc2OC)c1 [Example 65, N-(2-(4-(2,4-difluorophenoxy)piperidin-1-yl)-5-(methoxymethyl)pyridin-3-yl)-2-methoxynicotinamide]	7.3
COc1ncccc1C(=O)Nc1cc(C#N)ccc1N1CCC(C(=O)c2ccccc2)CC1 [Example 70, N-(2-(4-benzoylpiperidin-1-yl)-5-cyanophenyl)-2-methoxynicotinamide]	6.4
COc1ncccc1C(=O)Nc1cc(C#N)ccc1N1CCN(Cc2c(F)cccc2Cl)CC1 [Example 71]	6.5
COc1ncccc1C(=O)Nc1cc(C#N)ccc1N1CCN(Cc2cccs2)CC1 [Example 72, N-(5-cyano-2-(4-(thiophen-2-ylmethyl)piperazin-1-yl)phenyl)-2-methoxynicotinamide]	6.6
COc1ncccc1C(=O)Nc1cc(C#N)ccc1N1CCN(Cc2ccsc2)CC1 [Example 73, N-(5-cyano-2-(4-(thiophen-3-ylmethyl)piperazin-1-yl)phenyl)-2-methoxynicotinamide]	6.5
COc1nc(C)ccc1C(=O)Nc1cnc(C)nc1N1CCC(Oc2ccc(F)cc2F)CC1 [Example 74, N-(4-(4-(2,4-difluorophenoxy)piperidin-1-yl)-2-methylpyrimidin-5-yl)-2-methoxy-6-methylnicotinamide]	7.1
COc1ncccc1C(=O)Nc1cc(C#N)cnc1N1CCN(Cc2ccc(F)cc2)CC1 [Example 75, N-(5-cyano-2-(4-(4-fluorobenzyl)piperazin-1-yl)pyridin-3-yl)-2-methoxynicotinamide]	7.3
CC(=O)n1ncc2ccc(NC(=O)c3ccccn3)c(N3CCC(Oc4ccc(F)cc4F)CC3)c21 [Example 76, N-(1-acetyl-7-(4-(2,4-difluorophenoxy)piperidin-1-yl)-1H-indazol-6-yl)picolinamide]	<5.7
Cn1ncc2ccc(NC(=O)c3ccccn3)c(N3CCC(Oc4ccc(F)cc4F)CC3)c21 [Example 77, N-(7-(4-(2,4-difluorophenoxy)piperidin-1-yl)-1-methyl-1H-indazol-6-yl)picolinamide]	<5.7
COc1ccc(C(=O)Nc2cc(C#N)ccc2N2CCC(Oc3ccc(F)cc3F)CC2)c(OC)n1 [Example 78, N-(5-cyano-2-(4-(2,4-difluorophenoxy)piperidin-1-yl)phenyl)-2,6-dimethoxynicotinamide]	6.9

same assay, conditions: inhibition of constitutive cAMP activity of GPR6 in CHO-K1 cells; read-out: pEC50, in vitro inhibition of cAMP (converted)

EC50	SMILES
100 nM	N#Cc1cnc(N2CCC(Cc3ccccc3)CC2)c(NC(=O)c2ccccn2)c1 [Example 67, N-(2-(4-benzylpiperidin-1-yl)-5-cyanopyridin-3-yl)picolinamide]
